Measured values from paper PMC5684506 (BioImpacts : BI, 2017).

Target: T1, bovine liver catalase (BLC) (Bos taurus, UniProt P00432)
T1 sequence (P00432 2-527): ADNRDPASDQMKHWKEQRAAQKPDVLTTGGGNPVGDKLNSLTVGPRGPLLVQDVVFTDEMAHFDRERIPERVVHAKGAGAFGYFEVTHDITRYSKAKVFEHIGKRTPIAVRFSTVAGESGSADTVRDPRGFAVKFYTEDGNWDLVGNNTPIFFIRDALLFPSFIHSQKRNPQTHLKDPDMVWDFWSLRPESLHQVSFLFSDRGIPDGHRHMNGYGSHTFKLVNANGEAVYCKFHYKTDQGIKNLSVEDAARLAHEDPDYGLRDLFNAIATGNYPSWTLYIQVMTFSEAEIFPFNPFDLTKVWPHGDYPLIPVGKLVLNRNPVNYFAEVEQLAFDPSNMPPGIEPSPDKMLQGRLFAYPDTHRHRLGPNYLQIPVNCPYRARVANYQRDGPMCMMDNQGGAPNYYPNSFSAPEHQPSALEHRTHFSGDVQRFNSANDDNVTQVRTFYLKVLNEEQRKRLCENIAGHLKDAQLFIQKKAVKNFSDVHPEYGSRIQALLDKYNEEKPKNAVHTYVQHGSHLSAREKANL
Test: UV assay of H2O2 decomposition at […] nm with Lineweaver-Burk analysis
Assay type: biochemical

O=c1c(O)c(-c2ccc(O)c(O)c2)oc2cc(O)cc(O)c12 [QUE, 3,5,7,3ʹ,4ʹ-pentahydroxyflavone]
Ki: 46 µM
